Laboratory results as given in patent publication US8921559B2, “4-substituted-cyclohexylamino-4-piperidinyl-acetamide antagonists of CCR2” (Janssen Pharmaceutica NV, priority 2010, dated 2014).
Structures can show the parent of a compound that is named as a salt.

Molecular target: CCR2 (Homo sapiens (Human), UniProt P41597)
Experiment: MCP-1 Receptor Binding Assay in THP-1 Cells
Conditions: 0.5 nM 125I labeled MCP-1, 2 hours at 30° C., average of the two most similar values where more than one IC50, read-out: Inhibition of MCP-1 Binding IC50 CCR2 Binding
Procedure: Compounds of the invention were subjected to various representative biological tests. […] MCP-1 Receptor Binding Assay in THP-1 Cells Human monocytic cell line THP-1 cells were obtained from American Type Culture Collection (Manassas, Va., USA). The THP-1 cells were grown in RPMI-1640 (RPMI: Roswell Park Memorial Institute Medium-cell culture growth media) supplemented with 10% fetal bovine serum in a humidified 5% CO2 atmosphere at 37° C. The cell density was maintained between […].
THP-1 (cells were incubated with 0.5 nM ^125I labeled MCP-1 (Perkin-Elmer Life Sciences, Inc. Boston, Mass.) in the presence of varying concentrations of either unlabeled MCP-1 (R & D Systems, Minneapolis, Minn.) or test compound for 2 hours at 30° C. in a 96 well plate. Cells were then harvested onto a filter plate, dried, and 20 μL of Microscint 20 was added to each well. Plates were counted in a TopCount NXT, Microplate Scintillation & Luminescence Counter (Perkin-Elmer Life Sciences, Inc. Boston, Mass.). Blank values (buffer only) were subtracted from all values and drug treated values were compared to vehicle treated values. 1 μM cold MCP-1 was used for nonspecific binding.

Sequence of CCR2 (P41597 other isoform, or with tags, fused parts or gaps isoform P41597-2): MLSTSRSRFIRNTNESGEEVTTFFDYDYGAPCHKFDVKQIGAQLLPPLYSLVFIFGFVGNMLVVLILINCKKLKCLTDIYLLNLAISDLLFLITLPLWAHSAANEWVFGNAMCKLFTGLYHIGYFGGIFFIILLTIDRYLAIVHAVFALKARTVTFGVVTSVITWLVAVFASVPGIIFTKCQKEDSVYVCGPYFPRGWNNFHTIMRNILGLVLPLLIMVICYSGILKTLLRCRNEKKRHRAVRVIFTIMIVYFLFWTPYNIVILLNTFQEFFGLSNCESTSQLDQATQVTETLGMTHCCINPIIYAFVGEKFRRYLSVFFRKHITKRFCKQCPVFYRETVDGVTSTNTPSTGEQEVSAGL

SMILES | IC50
O=C(NO)C(NC1CCC(c2c[nH]c3ccccc23)CC1)C1CCN(C(=O)/C=C/c2cc(F)c(F)c(F)c2)CC1 (stereo not drawn) [Example 51, N-Hydroxy-2-{[4-(1H-Indol-3-yl)-cyclohexylamino]-2-[1-(trans-3,4,5-trifluorocinnamoyl)-piperidin-4-yl]}-acetamide] | 665 nM
NC(=O)C(NC1CCC(c2c[nH]c3ccccc23)CC1)C1CCN(C(=O)/C=C/c2ccccc2F)CC1 (stereo not drawn) [Example 8, 2-[4-(1H-Indol-3-yl)-cyclohexylamino]-2-[1-(trans-2-fluorocinnamoyl)-piperidin-4-yl]-acetamide] | 270 nM
NC(=O)C(NC1CCC(c2c[nH]c3ccncc23)CC1)C1CCN(C(=O)/C=C/c2ccc(F)cc2)CC1 (single isomer, unassigned) [Example 47a, 2-[4-(1H-pyrrolo[3,2-c]pyridin-3-yl)cyclohexyl]amino-2-[1-(trans-4-fluorocinnamoyl)-piperidin-4-yl]-acetamide] | 405 nM
NC(=O)C(NC1CCC(c2c[nH]c3ncccc23)CC1)C1CCN(C(=O)/C=C/c2cc(F)cc(F)c2)CC1 (stereo not drawn) [Example 46, R,S-2-[4-(1H-pyrrolo[2,3-b]pyridin-3-yl)cyclohexyl]amino-2-[1-(trans-3,5-difluorocinnamoyl)-piperidin-4-yl]-acetamide] | 330 nM
NC(=O)C(NC1CCC(c2c[nH]c3ccccc23)CC1)C1CCN(C(=O)/C=C/c2ccc(OC(F)(F)F)cc2)CC1 (stereo not drawn) [Example 21, 2-[4-(1H-Indol-3-yl)-cyclohexylamino]-2-[1-(trans-4-(trifluoromethoxy)cinnamoyl)piperidin-4-yl]-acetamide] | 492 nM
NC(=O)C(NC1CCC(c2c[nH]c3ccccc23)CC1)C1CCN(C(=O)/C=C/c2ccc3c(c2)OC(F)(F)O3)CC1 (stereo not drawn) [Example 17, 2-[4-(1H-Indol-3-yl)-cyclohexylamino]-2-[1-(trans-3-(2,2-difluoro-1,3-benzodioxol-5-yl)prop-2-enoyl)piperidin-4-yl]-acetamide] | 177 nM
NC(=O)C(NC1CCC(c2c[nH]c3ccccc23)CC1)C1CCN(C(=O)/C=C/c2ccc3c(c2)CCO3)CC1 (stereo not drawn) [Example 15, 2-[4-(1H-Indol-3-yl)-cyclohexylamino]-2-[1-(trans-3-(2,3-dihydrobenzofuran-5-yl)prop-2-enoyl)piperidin-4-yl]-acetamide] | 149 nM
NC(=O)C(NC1CCC(c2c[nH]c3ccccc23)CC1)C1CCN(C(=O)Nc2cc(F)cc(F)c2)CC1 (stereo not drawn) [Example 30, 2-[4-(1H-Indol-3-yl)-cyclohexylamino]-2-[N-(3,5-difluorophenyl)piperidine-1-carboxamid-4-yl]-acetamide] | 708 nM
NC(=O)C(NC1CCC(c2c[nH]c3cccnc23)CC1)C1CCN(C(=O)Nc2ccc(Cl)c(Cl)c2)CC1 (stereo not drawn) [Example 42, 2-[trans-4-(1H-pyrrolo[3,2-b]pyridin-3-yl)cyclohexyl]amino-2-[N-(3,4-dichlorophenyl)piperidine-1-carboxamid-4-yl]-acetamide] | 87 nM
NC(=O)C(NC1CCC(c2c[nH]c3ccccc23)CC1)C1CCN(C(=O)/C=C/c2ccc(F)c(F)c2)CC1 (stereo not drawn) [Example 5, 2-[4-(1H-Indol-3-yl)-cyclohexylamino]-2-[1-(trans-3,4-difluorocinnamoyl)-piperidin-4-yl]-acetamide] | 21 nM
NC(=O)C(N[C@H]1CC[C@H](C2CNc3ccccc32)CC1)C1CCN(C(=O)/C=C/c2cc(F)c(F)c(F)c2)CC1 (stereo partly drawn) [Example 52, 2-{[4-(2,3-dihydro-1H-indol-3-yl)-trans-cyclohexylamino]-2-[1-(trans-3,4,5-trifluorocinnamoyl)-piperidin-4-yl]}-acetamide] | 950 nM
NC(=O)C(NC1CCC(c2c[nH]c3cccnc23)CC1)C1CCN(C(=O)/C=C/c2cc(F)cc(F)c2)CC1 (stereo not drawn) [Example 45, R,S-2-[trans-4-(1H-pyrrolo[3,2-b]pyridin-3-yl)cyclohexyl]amino-2-[1-(trans-3,5-difluorocinnamoyl)-piperidin-4-yl]-acetamide] | 130 nM
NC(=O)C(NC1CCC(c2c[nH]c3ccccc23)CC1)C1CCN(C(=O)/C=C/c2ccc3c(c2)OCCO3)CC1 (stereo not drawn) [Example 23, 2-[4-(1H-Indol-3-yl)-cyclohexylamino]-2-[1-(trans-3-[2,3-dihydro-1,4-benzodioxin-7-yl]prop-2-enoyl)piperidin-4-yl]-acetamide] | 602 nM
NC(=O)C(NC1CCC(c2c[nH]c3ccccc23)CC1)C1CCN(C(=O)/C=C/c2ccc3c(c2)CCCO3)CC1 (stereo not drawn) [Example 33, 2-[4-(1H-indol-3-yl)-cyclohexylamino]-2-{1-[(2E)-3-(3,4-dihydro-2H-chromen-6-yl)prop-2-enoyl]piperidin-4-yl}acetamide] | 960 nM
NC(=O)C(N[C@H]1CC[C@H](c2c[nH]c3cccnc32)CC1)C1CCN(C(=O)/C=C/c2ccccc2)CC1 (stereo partly drawn) [Example 43, R,S-2-[trans-4-(1H-pyrrolo[3,2-b]pyridin-3-yl)cyclohexyl]amino-2-[1-(trans-cinnamoyl)-piperidin-4-yl]-acetamide] | 122 nM

Second part, the compound after the results:

IC50 | SMILES
669 nM | NC(=O)C(NC1CCC(c2c[nH]c3ccccc23)CC1)C1CCN(C(=O)Nc2ccc(F)cc2)CC1 (stereo not drawn) [Example 29, 2-[4-(1H-Indol-3-yl)-cyclohexylamino]-2-[N-(4-fluorophenyl)piperidine-1-carboxamid-4-yl]-acetamide]
320 nM | O=C(O)C(N[C@H]1CC[C@@H](c2c[nH]c3ccccc32)CC1)C1CCN(C(=O)Nc2ccc(Cl)c(Cl)c2)CC1 (stereo partly drawn) [Example 28, 2-[4-(1H-Indol-3-yl)-cis-cyclohexylamino]-2-[N-(3,4-dichlorophenyl)-piperidine-1-carboxamid-4-yl]-acetic acid hydrochloride]
150 nM | NC(=O)C(NC1CCC(c2c[nH]c3ccccc23)CC1)C1CCN(C(=O)Nc2cccc(C(F)(F)F)c2)CC1 (stereo not drawn) [Example 16, 2-[4-(1H-Indol-3-yl)-cyclohexylamino]-2-[N-(3-{trifluoromethyl}-phenyl)piperidine-1-carboxamid-4-yl]-acetamide]
230 nM | O=C(O)C(N[C@H]1CC[C@H](c2c[nH]c3ccccc32)CC1)C1CCN(C(=O)Nc2ccc(Cl)c(Cl)c2)CC1 (stereo partly drawn) [Example 27, 2-[4-(1H-Indol-3-yl)-trans-cyclohexylamino]-2-[N-(3,4-dichlorophenyl)-piperidine-1-carboxamid-4-yl]-acetic acid hydrochloride]
710 nM | CSc1cccc(NC(=O)N2CCC(C(NC3CCC(c4c[nH]c5ccccc45)CC3)C(N)=O)CC2)c1 (stereo not drawn) [Example 31, 2-[4-(1H-Indol-3-yl)-cyclohexylamino]-2-[N-(3-{methysulfanyl}phenyl)-piperidine-1-carboxamid-4-yl]-acetamide]
370 nM | NC(=O)C(NC1CCC(c2c[nH]c3ccccc23)CC1)C1CCN(C(=O)Nc2cccc(F)c2)CC1 (stereo not drawn) [Example 20, 2-[4-(1H-Indol-3-yl)-cyclohexylamino]-2-[N-(3-fluorophenyl)piperidine-1-carboxamid-4-yl]-acetamide]
